Where two headings read alike, the source gives them in different places. Where a SMILES comes first, the peptide text is derived from it. Bridges are numbered along the chain shown (N, C = ends). [ ]: non-standard residue; d: D form. Phe(4-COOH) = N[C@@H](Cc1ccc(C(=O)O)cc1)C(=O)O; Phe(3,4-F2) = N[C@@H](Cc1ccc(F)c(F)c1)C(=O)O; R8 = C=CCCCCCC[C@@](C)(N)C(=O)O; Cba = N[C@@H](CC1CCC1)C(=O)O; S5 = C=CCCC[C@](C)(N)C(=O)O; Nle = CCCC[C@H](N)C(=O)O

In general, IC50 refers to the point on the concentration scale where inhibition reaches its midpoint. As usually defined, the Ki is the dissociation constant of the complex between target and ligand, obtained from inhibition or displacement.

One assay deals with MDM2 (Homo sapiens, UniProt Q00987). Put plainly: Competitive fluorescence polarization assay for MDM2. Type of assay: binding. The settings on record: competitive FP assay, MDM2. (In general: Polarisation of emitted light reports the rotation of a fluorescent probe.)
Another assay has as its target T1, MDMX (Homo sapiens, UniProt O15151).
T1 sequence (O15151 1-125): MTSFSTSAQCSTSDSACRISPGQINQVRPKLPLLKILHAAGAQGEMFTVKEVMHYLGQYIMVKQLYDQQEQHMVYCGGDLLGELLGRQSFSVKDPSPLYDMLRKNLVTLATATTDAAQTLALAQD
Briefly: Competitive fluorescence polarization assay for MDMX. The settings on record: competitive FP assay. Format: binding.

For the next assay, the system named is Caspase 3. Briefly: Caspase 3 detection assay in SJSA1 cells. Type of assay: cell-based. The settings on record: 48 h, Caspase 3 activation over DMSO-treated cells; for caspase 0.3 uM: 0.3 uM peptide; for caspase 3 uM: 3 uM peptide; for caspase 10 uM: 10 uM peptide; for caspase 30 uM: 30 uM peptide.
The next assay has as its system SJSA-1 cells. Put plainly: Cell lysis by peptidomimetic macrocycles (LDH release). Conditions: 1 h at 37C. Type of assay: cell-based. On the technique in general: Release of lactate dehydrogenase indicates damage to the cell membrane.

MDM2, sequence (Q00987 1-125): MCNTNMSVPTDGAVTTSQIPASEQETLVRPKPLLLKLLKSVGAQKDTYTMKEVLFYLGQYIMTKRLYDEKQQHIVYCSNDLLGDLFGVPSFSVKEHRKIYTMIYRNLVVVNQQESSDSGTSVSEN

As to `CC[C@H](C)[C@H](NC(C)=O)C(=O)N[C@H](C(=O)N[C@@H](Cc1ccccc1)C(=O)N[C@]1(C)CCCCCCC=CCCC[C@@](C)(C(=O)N[C@@H](C)C(=O)N[C@@H](C)C(=O)N[C@H](C(=O)N[C@H](C)C(N)=O)[C@@H](C)CC)NC(=O)[C@H](CC(C)C)NC(=O)[C@H](CCC(N)=O)NC(=O)[C@H](C(C)C)NC(=O)[C@H](Cc2c[nH]c3ccccc23)NC(=O)[C@H](Cc2ccc(O)cc2)NC(=O)[C@H](Cc2ccccc2)NC1=O)[C@@H](C)O` [compound 177] (Ac-ITF[R8]FYWVQL[S5]AAI[dA]-NH2; staple 4-11), on MDM2 (read-out: IC50 (MDM2)), the IC50 lay within 10 to 100 nM. Besides, the Ki at MDM2 (read-out: Ki (MDM2)) is below 10 nM. For the same compound, the IC50 at MDMX (read-out: IC50 (MDMX)) was in the range of 100 to 1000 nM. Also, the Ki on MDMX (read-out: Ki (MDMX)) was 10 to 100 nM. Besides, in the assay on Caspase 3, the “caspase 0.3 uM” value amounted to 1, the “caspase 3 uM” value is 1, the “caspase 10 uM” value worked out at 8 and the “caspase 30 uM” value is 20. In the assay with SJSA-1 cells, the “6.25 uM % Lysed cells (1 h LDH)” value is −1%, the “25 uM % Lysed cells (1 h LDH)” value was found to be 0% and the “50 uM % Lysed cells (1 h LDH)” value is listed as 1%.
As for `CC(=O)N[C@@H](CC(C)C)C(=O)N[C@H](C(=O)N[C@@H](Cc1ccccc1)C(=O)N[C@]1(C)CCCCCCC=CCCC[C@@](C)(C(=O)N[C@@H](CO)C(=O)N[C@@H](C)C(=O)N[C@@H](C)C(N)=O)NC(=O)[C@H](CC(C)C)NC(=O)[C@H](C)NC(=O)[C@H](C(C)C)NC(=O)[C@H](Cc2c[nH]c3ccccc23)NC(=O)[C@H](Cc2ccc(O)cc2)NC(=O)[C@H](C)NC1=O)[C@@H](C)O` [compound 196] (Ac-LTF[R8]AYWVAL[S5]SAA-NH2; staple 4-11), the half-maximal inhibitory concentration (IC50) on MDM2 (read-out: IC50 (MDM2)) was 10 to 100 nM. Also, at MDM2 (read-out: Ki (MDM2)), the inhibition constant Ki was below 10 nM. Moreover, the IC50 on MDMX (read-out: IC50 (MDMX)) lay within 100 to 1000 nM. The Ki on MDMX (read-out: Ki (MDMX)) is 10 to 100 nM. In the assay on Caspase 3, the “caspase 0.3 uM” value is listed as 1, the “caspase 3 uM” value amounted to 4, the “caspase 10 uM” value was 33 and the “caspase 30 uM” value stood at 26. In the assay on SJSA-1 cells, the “6.25 uM % Lysed cells (1 h LDH)” value stood at 0%, the “25 uM % Lysed cells (1 h LDH)” value came out at 0% and the “50 uM % Lysed cells (1 h LDH)” value was determined as 3%.
At MDM2 (IC50 (MDM2)), `CC(=O)N[C@@H](CC(C)C)C(=O)N[C@H](C(=O)N[C@@H](Cc1ccccc1)C(=O)N[C@]1(C)CCCCCCC=CCCC[C@@](C)(C(=O)N[C@@H](CO)C(=O)N[C@@H](C)C(=O)N[C@@H](C)C(N)=O)NC(=O)[C@H](CC(C)C)NC(=O)[C@H](C)NC(=O)[C@H](C)NC(=O)[C@H](Cc2c[nH]c3ccccc23)NC(=O)[C@H](Cc2c[nH]cn2)NC(=O)[C@H](C)NC1=O)[C@@H](C)O` [compound 197] (Ac-LTF[R8]AHWAAL[S5]SAA-NH2; staple 4-11) came in with an IC50 below 10 nM. In addition, the Ki on MDM2 (Ki (MDM2)) is below 10 nM. At MDMX (IC50 (MDMX)), the IC50 fell in the range of 100 to 1000 nM. This compound returned an inhibition constant Ki at MDMX (Ki (MDMX)) of 10 to 100 nM. Besides, in the assay with Caspase 3, the “caspase 0.3 uM” value stood at 1, the “caspase 3 uM” value came to 1, the “caspase 10 uM” value is 10 and the “caspase 30 uM” value is 20. Further, in the assay with SJSA-1 cells, the “6.25 uM % Lysed cells (1 h LDH)” value is on record as 1%, the “25 uM % Lysed cells (1 h LDH)” value is reported as −1% and the “50 uM % Lysed cells (1 h LDH)” value is given as −2%.
As to `CC(=O)N[C@@H](CC(C)C)C(=O)N[C@H](C(=O)N[C@@H](Cc1ccccc1)C(=O)N[C@]1(C)CCCCCCC=CCCC[C@@](C)(C(=O)N[C@@H](C)C(=O)N[C@@H](Cc2c[nH]cn2)C(=O)N[C@@H](Cc2ccccc2)C(=O)N[C@@H](C)C(N)=O)NC(=O)[C@H](CC(C)C)NC(=O)[C@H](C)NC(=O)[C@H](C)NC(=O)[C@H](Cc2c[nH]c3ccccc23)NC(=O)[C@H](Cc2ccc(O)cc2)NC(=O)[C@H](C)NC1=O)[C@@H](C)O` [compound 204] (Ac-LTF[R8]AYWAAL[S5]AHFA-NH2; staple 4-11), on MDM2 (read-out: IC50 (MDM2)), the half-maximal inhibitory concentration (IC50) was 10 to 100 nM. At MDM2 (read-out: Ki (MDM2)), the Ki is below 10 nM. In addition, the IC50 at MDMX (read-out: IC50 (MDMX)) is 100 to 1000 nM. Further, the inhibition constant Ki on MDMX (read-out: Ki (MDMX)) lay within 10 to 100 nM. Also, in the assay on Caspase 3, the “caspase 0.3 uM” value is reported as 1, the “caspase 3 uM” value is 4, the “caspase 10 uM” value turned out to be 10 and the “caspase 30 uM” value worked out at 10. Moreover, in the assay on SJSA-1 cells, the “6.25 uM % Lysed cells (1 h LDH)” value came out at 4%, the “25 uM % Lysed cells (1 h LDH)” value amounted to 2% and the “50 uM % Lysed cells (1 h LDH)” value was determined as 0%.
Consider `CCCC[C@H](NC(=O)[C@H](C)NC(=O)[C@H](C)NC(=O)[C@]1(C)CCCC=CCCCCCC[C@@](C)(NC(=O)[C@H](Cc2ccccc2)NC(=O)[C@@H](NC(=O)[C@H](CCC(=O)O)NC(C)=O)[C@@H](C)O)C(=O)N[C@@H](C)C(=O)N[C@@H](Cc2ccc(O)cc2)C(=O)N[C@@H](Cc2c[nH]c3ccccc23)C(=O)N[C@@H](C)C(=O)N[C@@H](CCC(N)=O)C(=O)N[C@@H](CC2CCC2)C(=O)N1)C(=O)N[C@@H](C)C(N)=O` [compound 237] (Ac-ETF[R8]AYWAQ[Cba][S5]AA[Nle]A-NH2; staple 4-11), for which the IC50 at MDM2 (read-out: IC50 (MDM2)) was 10 to 100 nM. For the same compound, on MDM2 (read-out: Ki (MDM2)), the Ki was below 10 nM. Also, the IC50 at MDMX (read-out: IC50 (MDMX)) was 100 to 1000 nM. Further, the Ki on MDMX (read-out: Ki (MDMX)) fell in the range of 10 to 100 nM. Moreover, in the assay with Caspase 3, the “caspase 0.3 uM” value worked out at 1, the “caspase 3 uM” value is 5, the “caspase 10 uM” value came to 9 and the “caspase 30 uM” value is 15. Also, in the assay on SJSA-1 cells, the “6.25 uM % Lysed cells (1 h LDH)” value was 0%, the “25 uM % Lysed cells (1 h LDH)” value came out at 7% and the “50 uM % Lysed cells (1 h LDH)” value is 55%.
Take `CCCC[C@H](NC(=O)[C@H](C)NC(=O)[C@H](CO)NC(=O)[C@]1(C)CCCC=CCCCCCC[C@@](C)(NC(=O)[C@H](Cc2ccc(F)c(F)c2)NC(=O)[C@@H](NC(=O)[C@H](CC(C)C)NC(C)=O)[C@@H](C)O)C(=O)N[C@@H](CCC(=O)O)C(=O)N[C@@H](Cc2ccc(O)cc2)C(=O)N[C@@H](Cc2c[nH]c3ccccc23)C(=O)N[C@@H](C)C(=O)N[C@@H](CCC(N)=O)C(=O)N[C@@H](CC2CCC2)C(=O)N1)C(=O)N[C@@H](C)C(N)=O` [compound 243] (Ac-LT[Phe(3,4-F2)][R8]EYWAQ[Cba][S5]SA[Nle]A-NH2; staple 4-11): the IC50 at MDM2 (read-out: IC50 (MDM2)) was 10 to 100 nM. The inhibitory constant (Ki) at MDM2 (read-out: Ki (MDM2)) is below 10 nM. For the same compound, at MDMX (read-out: IC50 (MDMX)), the 50% inhibitory concentration (IC50) fell in the range of 10 to 100 nM. Moreover, the Ki at MDMX (read-out: Ki (MDMX)) lay within 10 to 100 nM. Also, in the assay on Caspase 3, the “caspase 0.3 uM” value is 1, the “caspase 3 uM” value amounted to 2, the “caspase 10 uM” value was 5 and the “caspase 30 uM” value came out at 23. Moreover, in the assay on SJSA-1 cells, the “6.25 uM % Lysed cells (1 h LDH)” value was 4%, the “25 uM % Lysed cells (1 h LDH)” value amounted to 39% and the “50 uM % Lysed cells (1 h LDH)” value was determined as 64%.
`CCCC[C@H](NC(=O)[C@H](C)NC(=O)[C@H](CO)NC(=O)[C@]1(C)CCCC=CCCCCCC[C@@](C)(NC(=O)[C@H](Cc2ccccc2)NC(=O)[C@@H](NC(=O)[C@H](CC(C)C)NC(C)=O)[C@@H](C)O)C(=O)N[C@@H](CCC(=O)O)C(=O)N[C@@H](Cc2ccc(C(=O)O)cc2)C(=O)N[C@@H](Cc2c[nH]c3ccccc23)C(=O)N[C@@H](C)C(=O)N[C@@H](CCC(N)=O)C(=O)N[C@@H](CC2CCC2)C(=O)N1)C(=O)N[C@@H](C)C(N)=O` [compound 244] (Ac-LTF[R8]E[Phe(4-COOH)]WAQ[Cba][S5]SA[Nle]A-NH2; staple 4-11): the half-inhibitory concentration (IC50) on MDM2 (read-out: IC50 (MDM2)) was in the range of 10 to 100 nM. The inhibitory constant (Ki) on MDM2 (read-out: Ki (MDM2)) was below 10 nM. Also, the IC50 on MDMX (read-out: IC50 (MDMX)) was 10 to 100 nM. Also, the Ki at MDMX (read-out: Ki (MDMX)) is below 10 nM. For the same compound, in the assay with Caspase 3, the “caspase 0.3 uM” value is on record as 1, the “caspase 3 uM” value was 2, the “caspase 10 uM” value was determined as 7 and the “caspase 30 uM” value is listed as 17. In the assay with SJSA-1 cells, the “6.25 uM % Lysed cells (1 h LDH)” value is 0%, the “25 uM % Lysed cells (1 h LDH)” value is given as 0% and the “50 uM % Lysed cells (1 h LDH)” value is 4%.

For the origin of these results see patent publication US8927500B2, “Peptidomimetic macrocycles” (Aileron Therapeutics, Inc., priority 2012, dated 2015).
